Source: ChEMBL document CHEMBL1201862, “PubChem BioAssay data set” (2004)
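Briefly, cells in 96-well plates were exposed to five compound concentrations for 48 h, and endpoints were estimated by linear interpolation. Here, GI50 denotes the concentration required for 50% inhibition of growth.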 The source made the active and inactive calls. Cut-off read from the data, not from the text of the source: active = GI50 up to about 1.1 µM and inactive = higher.

How the values were obtained:
Assay in all cases: growth of human tumour cells (NCI), 48 h
T47D = test system: T47D
SR = test system: SR
TK-10 = test system: TK-10
EKVX = test system: EKVX
HT-29 = test system: HT-29
CCRF-CEM = test system: CCRF-CEM
M14 = test system: M14
KM12 = test system: KM12
HL-60 = test system: HL-60
BT-549 = test system: BT-549
NCI-H460 = test system: NCI-H460
MCF7 = test system: MCF7
UACC-62 = test system: UACC-62
OVCAR-8 = test system: OVCAR-8
SNB-19 = test system: SNB-19
OVCAR-3 = test system: OVCAR-3
Hs-578T = test system: Hs-578T
MDA-MB-435 = test system: MDA-MB-435
Malme-3M = test system: Malme-3M

Measured: GI50

COc1cccc(CC(=O)N2CCN(CCCc3ccccc3)CC2)c1
inactive: T47D 22.2 µM | SR 42.1 µM | TK-10 78.7 µM | EKVX 59.6 µM | HT-29 31.4 µM | CCRF-CEM 89.3 µM | M14 63.8 µM | KM12 > 100 µM | HL-60 61.2 µM | BT-549 33.8 µM | NCI-H460 > 100 µM | MCF7 60.3 µM | UACC-62 > 100 µM | OVCAR-8 53 µM | SNB-19 > 100 µM | OVCAR-3 60.1 µM | Hs-578T > 100 µM | MDA-MB-435 70.6 µM

Cc1ccc(S(=O)(=O)N2CCN(CCO)CCN(S(=O)(=O)c3ccc(C)cc3)CCN(CCO)CC2)cc1
inactive: T47D 17.5 µM | SR 12.3 µM | TK-10 28.2 µM | EKVX 18.2 µM | HT-29 12.2 µM | CCRF-CEM 22.9 µM | M14 17.1 µM | KM12 20.6 µM | HL-60 18 µM | BT-549 60.8 µM | NCI-H460 14.3 µM | MCF7 13.4 µM | UACC-62 18.2 µM | OVCAR-8 28 µM | SNB-19 37.8 µM | OVCAR-3 18.7 µM | Hs-578T 30.1 µM | MDA-MB-435 15.1 µM

N#CCC(=O)N/N=C\C(O)C(O)C(O)C(O)CO (centres undefined)
inactive: T47D > 100 µM | SR > 100 µM | TK-10 > 100 µM | HT-29 > 100 µM | Malme-3M > 100 µM | CCRF-CEM > 100 µM | M14 > 100 µM | KM12 > 100 µM | HL-60 > 100 µM | BT-549 > 100 µM | NCI-H460 > 100 µM | MCF7 > 100 µM | UACC-62 > 100 µM | OVCAR-8 > 100 µM | SNB-19 > 100 µM | OVCAR-3 > 100 µM | Hs-578T > 100 µM | MDA-MB-435 > 100 µM

O=C1OC(c2ccccc2)=N/C1=C\c1cccc(F)c1
inactive: T47D > 100 µM | SR 22.9 µM | TK-10 > 100 µM | EKVX > 100 µM | HT-29 > 100 µM | CCRF-CEM 35.7 µM | M14 57.8 µM | KM12 33.5 µM | HL-60 24.9 µM | BT-549 32.4 µM | NCI-H460 60.5 µM | MCF7 > 100 µM | UACC-62 > 100 µM | OVCAR-8 26.2 µM | SNB-19 55 µM | OVCAR-3 37 µM | Hs-578T 36.3 µM | MDA-MB-435 75 µM

CC1(C)OC(=O)N(c2ccccc2)C12C=Cc1cccc([N+](=O)[O-])c1O2 (centres undefined)
inactive: T47D 43.4 µM | SR 9.18 µM | TK-10 > 100 µM | EKVX 60.8 µM | HT-29 98.9 µM | CCRF-CEM 37.3 µM | M14 51.6 µM | KM12 58.6 µM | HL-60 17.5 µM | BT-549 > 100 µM | NCI-H460 > 100 µM | MCF7 79.3 µM | UACC-62 80 µM | OVCAR-8 92.7 µM | SNB-19 > 100 µM | OVCAR-3 > 100 µM | Hs-578T 73.6 µM | MDA-MB-435 33 µM

Cc1ccc(-c2c3c(n(C4OC(CO)C(O)C(O)C4O)c(=S)c2C#N)CC(C)(C)CC3=O)cc1 (centres undefined)
inactive: T47D 34.4 µM | SR 37 µM | TK-10 > 100 µM | HT-29 33.1 µM | Malme-3M 96.6 µM | CCRF-CEM 68.2 µM | M14 93.5 µM | KM12 > 100 µM | HL-60 41.5 µM | BT-549 50 µM | NCI-H460 52.2 µM | MCF7 45.7 µM | UACC-62 46.5 µM | OVCAR-8 71.9 µM | SNB-19 > 100 µM | OVCAR-3 > 100 µM | Hs-578T 70.6 µM | MDA-MB-435 65.2 µM

CCCC[C@@H](C)/C=C1\CN2CCC[C@H]2[C@@](C)(OCc2ccccc2)[C@@H]1O
inactive: T47D 8.79 µM | SR > 50 µM | TK-10 > 38.5 µM | EKVX > 31.1 µM | HT-29 > 50 µM | Malme-3M > 50 µM | CCRF-CEM > 50 µM | M14 > 50 µM | KM12 > 13.8 µM | BT-549 > 50 µM | NCI-H460 > 16.7 µM | MCF7 > 50 µM | UACC-62 > 50 µM | OVCAR-8 > 47.4 µM | SNB-19 > 23.8 µM | OVCAR-3 > 17.5 µM | Hs-578T > 50 µM | MDA-MB-435 > 50 µM

O=c1ccn([C@@H]2C[C@@H]2CO)c(=O)[nH]1
inactive: T47D > 100 µM | SR > 100 µM | TK-10 > 100 µM | EKVX > 100 µM | HT-29 > 100 µM | Malme-3M > 100 µM | CCRF-CEM > 100 µM | M14 > 100 µM | KM12 > 100 µM | HL-60 > 100 µM | BT-549 > 100 µM | NCI-H460 > 100 µM | MCF7 > 100 µM | UACC-62 > 100 µM | OVCAR-8 > 100 µM | SNB-19 > 100 µM | Hs-578T > 100 µM | MDA-MB-435 > 100 µM
